Article PMC12529303, “A phase I study of AZD8186 in combination with docetaxel in patients with PTEN-mutated or PIK3CB-mutated advanced solid tumors” (ESMO Open, 2025)
Where two headings read alike, the source gives them in different places. Blank lines part the entries; values can stand above or below the compound they belong to.

Experiments:
[1] = system: PTEN-null and PI3Kβ-driven preclinical models of breast and prostate cancer; parameters: method as in PMID 32215185, PMID 25398829; conditions: in vitro; cited from earlier work
[2] = AZD8186 plasma pharmacokinetics (UPLC-MS/MS, noncompartmental); format: in vivo, human; conditions: for Cmin,ss / Cmax / Tmax / AUC(0-t): plasma; for Cmax / Tmax / AUC(0-t): human, oral, C2D1; for AUC(0-t): read-out: AUC0-6h
Experimental: (§1) Plasma samples were collected at predefined time points based upon the dosing schedules for docetaxel and AZD8186. Cycle 1, day 1 (C1D1) pretreatment baseline measurements were collected for both drugs. For docetaxel, samples were collected as follows: C2D1, pretreatment, 30 min and 55 min after the start of the docetaxel infusion, and 2 h and 5 h after the end of the docetaxel infusion; C2D2, ∼24 h after the start of the docetaxel infusion. For AZD8186, samples were collected as follows: C2D1, pretreatment and 1 h, 3 h, and 6 h after dosing; C2D2, ∼24 h after dose and before the next AZD8186 dose. Starting from cycle 3, a day 1 pretreatment sample was collected at each scheduled visit.
(§2) Plasma concentrations of docetaxel were quantified using a validated liquid chromatography and tandem mass spectrometry.[36] The lower limit of quantitation for docetaxel was 0.5 ng/ml. AZD8186 plasma concentration was quantified using a validated ultraperformance liquid chromatography and tandem mass spectrometry method with a 5-2000 ng/ml dynamic range. Assays were carried out at the Sidney Kimmel Comprehensive Cancer Center Analytical Pharmacology Core Laboratory at Johns Hopkins University.
Statistical analysis for pharmacokinetic (PK) studies was carried out using Graph Pad Prism software version 9.4.1 (GraphPad Software, Inc., Boston, MA). PK parameters were evaluated statistically by Kruskal–Wallis test. Significance was determined at a level of P < 0.05. Between-group comparisons were conducted using the Wilcoxon signed rank test.

xenograft mouse models = system: xenograft mouse models; parameters: method as in PMID 32215185, PMID 25398829; conditions: cited from earlier work
advanced solid tumors = system: advanced solid tumors; parameters: method as in PMID 35247924; conditions: 60 mg b.i.d. and 120 mg b.i.d.; cited from earlier work
[3] = system: castration-resistant prostate cancer with PTEN loss; parameters: method as in PMID 28645941; conditions: cited from earlier work
clinical = conditions: human, in vivo
Experimental: as §1
as §2, with “Assays were carried out at the Sidney Kimmel Comprehensive Cancer Center Analytical Pharmacology Core Laboratory at Johns Hopkins University.” left out
Statistical analysis for pharmacokinetic (PK) studies was carried out using Graph Pad Prism software version 9.4.1 (GraphPad Software, Inc., Boston, MA). PK parameters were evaluated statistically by Kruskal–Wallis test. Significance was determined at a level of P < 0.05. […]

[4] = TAC-1B AZD8186 reduced: docetaxel 45 mg/m^2, AZD8186 30 mg, n=1
[5] = TAC1+GF: docetaxel 75 mg/m^2, AZD8186 60 mg, n=3
[6] = TAC-1: docetaxel 75 mg/m^2, AZD8186 60 mg, n=1
[7] = TAC-1B: docetaxel 60 mg/m^2, AZD8186 60 mg, n=1
[8] = TAC-2: docetaxel 75 mg/m^2, AZD8186 120 mg, n=7

SMILES: C[C@@H](Nc1cc(F)cc(F)c1)c1cc(C(=O)N(C)C)cc2c(=O)cc(N3CCOCC3)oc12 [AZD8186]
PI3K signaling and viability [1]: inhibited PI3K signaling and viability
steady-state trough concentrations across dosing cohorts ([2]; Kruskal-Wallis): not significantly different
Cmin,ss ([2]; TAC1+GF: docetaxel 75 mg/m^2, AZD8186 60 mg, n=1): 176.0 (1) ng/mL
Cmin,ss ([2]; TAC-1: docetaxel 75 mg/m^2, AZD8186 60 mg, mean ± SD, n=3): 149.8 ± 77.2 (3) ng/mL
Cmin,ss ([2]; TAC-1 AZD8186 reduced: docetaxel 60 mg/m^2, AZD8186 30 mg, n=1): 66.0 (1) ng/mL
Cmin,ss [2, 4]: 130.0 (1) ng/mL
Cmin,ss ([2]; TAC-1B: docetaxel 60 mg/m^2, AZD8186 60 mg, mean ± SD, n=3): 83.5 ± 55.1 (3) ng/mL
Cmin,ss ([2]; TAC-2: docetaxel 75 mg/m^2, AZD8186 120 mg, mean ± SD, n=6): 76.8 ± 49.2 (6) ng/mL
Cmax ([2]; TAC1+GF: docetaxel 75 mg/m^2, AZD8186 60 mg): 0.166 µg/mL
Tmax [2, 5]: 2.76 h
AUC(0-t) [2, 5]: 0.224 µg·h/mL
Cmax ([2]; TAC-1: docetaxel 75 mg/m^2, AZD8186 60 mg): 0.464 µg/mL
Tmax [2, 6]: 3.87 h
AUC(0-t) [2, 6]: 1.11 µg·h/mL
Cmax [2, 4]: 0.253 µg/mL
Tmax [2, 4]: 8.43 h
AUC(0-t) [2, 4]: 0.789 µg·h/mL
Cmax [2, 7]: 0.285 µg/mL
Tmax [2, 7]: 4.75 h
AUC(0-t) [2, 7]: 0.808 µg·h/mL
Cmax ([2]; TAC-2: docetaxel 75 mg/m^2, AZD8186 120 mg): 0.532 µg/mL
Tmax [2, 8]: 4.43 h
AUC(0-t) [2, 8]: 1.8 µg·h/mL
single-agent activity in vivo (xenograft mouse models): limited single-agent activity
tolerability and target inhibition in plasma (advanced solid tumors): tolerable with dose-dependent target inhibition in plasma

SMILES: Cc1c(Cn2c(C)nc3c(C(=O)O)cc(N4CCOCC4)cc32)cccc1C(F)(F)F [GSK2636771]
responses [3]: only anecdotal responses

Tmax (clinical): 0.92 h
SMILES: CC(=O)O[C@@]12CO[C@@H]1C[C@H](O)[C@@]1(C)C(=O)[C@H](O)C3=C(C)[C@@H](OC(=O)[C@H](O)[C@@H](NC(=O)OC(C)(C)C)c4ccccc4)C[C@@](O)([C@@H](OC(=O)c4ccccc4)[C@H]21)C3(C)C [docetaxel]
